Series [1] can be described thus: log P determination by HPLC (EEC Directive 79/831 Annex V.A8). The format is physicochemical. The method, then: The measurements were carried out using an Agilent 1100 LC system with a 50*4.6 Zorbax Eclipse C18 1.8 μm column (oven temperature 55° C., flow rate 2.0 ml/min).
The following mobile phases were used:
Mobile phase A: acetonitrile+1000 μl of formic acid/l
Mobile phase B: Millipore water+900 μl of formic acid/l

The test system of series [2] is green peach aphid (Myzus persicae). In words: Myzus test (MYZUPE spray treatment). The format is in vivo. Conditions: Myzus persicae, foliar, read-out: effect in % (aphids killed). From the text: Solvent: 78 parts by weight of acetone
(§1) Solvent: 78.0 parts by weight of acetone

Series [3] deals with caterpillars of the armyworm (Spodoptera frugiperda). In words: Spodoptera frugiperda test (SPODFR spray treatment). Conditions: Spodoptera frugiperda, foliar, read-out: effect in % (caterpillars killed). The series is classed as in vivo.
Source text: as §1

In series [4] the test system is larvae of the mustard beetle (Phaedon cochleariae). Description: Phaedon test (PHAECO spray treatment). As to conditions: Phaedon cochleariae, in Brassica rapa, foliar, read-out: effect in % (beetle larvae killed).
Setting [5] is: reversed-phase HPLC, Zorbax Eclipse C18 column, determined by HPLC according to EEC Directive 79/831 Annex V.A8, read-out: log P.
Setting [6] is: application rate 100 g/ha, Chinese cabbage leaf discs.
The mark [7] stands for this setting: application rate 100 g/ha, maize leaf discs.
Where [8] appears, read: reversed-phase HPLC, Zorbax Eclipse C18 column, by HPLC according to EEC Directive 79/831 Annex V.A8, read-out: log P.

Read-outs that look alike come from different tables or passages of the source. Some results are limits rather than exact numbers.

For the compound `COCCNC(=O)c1cc(C#N)cc(C)c1NC(=O)c1cc(Cn2nnc(C(F)(F)F)n2)nn1-c1ncccc1Cl` [Example 92], the chromatographic logP in series [1] (log P) was determined as 2.73. In addition, the pest or weed control at 100 g/ha in series [2] (in Brassica rapa), in series [3] (in Zea mays) and in series [4] was not below 80% in each case.

Turning to `Cc1cc(C#N)cc(C(=O)NC(C)C2CC2)c1NC(=O)c1cc(Cn2nnc(C(F)F)n2)nn1-c1ncccc1Cl` (stereo not shown) [Example 263], in series [1] (log P), the chromatographic logP stood at 2.86. Also, the pest or weed control at 100 g/ha in series [2] (in Brassica rapa), in series [3] (in Zea mays) and in series [4] was not below 80% in each case.

For `CNC(=O)c1cc(I)cc(C)c1NC(=O)c1cc(Cn2nnc(C(F)(C(F)(F)F)C(F)(F)F)n2)nn1-c1ncccc1Cl` [Example 377], the chromatographic logP in series [1] (log P) amounted to 3.94. Besides, the pest or weed control at 100 g/ha in series [2] (in Brassica rapa), in series [3] (in Zea mays) and in series [4] was not below 80% in each case.

Turning to `CC(C)(C)NC(=O)c1cc(Cl)cc(Cl)c1NC(=O)c1cc(Cn2nnnc2C(F)F)nn1-c1ncccc1Cl` [Example 471], the chromatographic logP in series [1] (log P) stood at 3.05. For the same compound, the pest or weed control at 100 g/ha in series [2] (in Brassica rapa), in series [3] (in Zea mays) and in series [4] was not below 80% in each case.

On to `C=C(C)CNC(=O)c1cc(Cl)cc(C)c1NC(=O)c1cc(Cn2nnc(C(F)(F)F)n2)nn1-c1ncccc1Cl` [Example 337], for which the chromatographic logP in series [1] (log P) came out at 3.62. Moreover, the pest or weed control at 100 g/ha in series [2] (in Brassica rapa), in series [3] (in Zea mays) and in series [4] was not below 80% in each case.

As to `CNC(=O)c1cc(Br)cc(C)c1NC(=O)c1cc(Cn2nnnc2C(F)(F)F)nn1-c1ncccc1Cl` [Example 170], the chromatographic logP in series [1] (log P) was 2.72. In addition, the pest or weed control at 100 g/ha in series [2] (in Brassica rapa), in series [3] (in Zea mays) and in series [4] was not below 80% in each case.

On to `Cc1cc(Cl)cc(C(=O)NC(C)C)c1NC(=O)c1cc(Cn2nnc(C(F)(F)F)n2)nn1-c1ccccc1Cl` [Example 427], for which, in series [1] (setting [5]), the chromatographic logP is 3.93. The pest or weed control at 100 g/ha in series [2] (setting [6]), in series [3] (setting [7]) and in series [4] was not below 80% each time.

In the case of `CCNC(=O)c1cc(C#N)cc(C)c1NC(=O)c1cc(Cn2nnc(C(F)(F)F)n2)nn1-c1ccccc1Cl` [Example 342], the chromatographic logP in series [1] (setting [8]) was determined as 3.36. Besides, the pest or weed control at 100 g/ha in series [2] (setting [6]), in series [3] (setting [7]) and in series [4] was not below 80% each time.

In series [1] (log P), `Cc1cc(Br)cc(C(=O)NC(C)C2CC2)c1NC(=O)c1cc(Cn2nnc(C(F)(F)F)n2)nn1-c1ncccc1Cl` (stereo not shown) [Example 31] showed a chromatographic logP of 3.89. Besides, the pest or weed control at 100 g/ha in series [2] (in Brassica rapa), in series [3] (in Zea mays) and in series [4] was not below 80% each time.

As to `Cc1cc(I)cc(C(=O)NC2CC2)c1NC(=O)c1cc(Cn2nnnc2C(F)(F)F)nn1-c1ncccc1Br` [Example 495], the chromatographic logP in series [1] (setting [5]) is 3.11. Further, the pest or weed control at 100 g/ha in series [2] (setting [6]), in series [3] (setting [7]) and in series [4] was not below 80% each time.

In series [1] (log P), `Cc1cc(I)cc(C(=O)NCC#N)c1NC(=O)c1cc(Cn2nnc(C(F)(F)F)n2)nn1-c1ncccc1Cl` [Example 70] returned a chromatographic logP of 3.14. For the same compound, the pest or weed control at 100 g/ha in series [2] (in Brassica rapa), in series [3] (in Zea mays) and in series [4] was not below 80% each time.

In series [1] (log P), `CCC(C)NC(=O)c1cc(C#N)cc(C)c1NC(=O)c1cc(Cn2nnc(C(F)(F)F)n2)nn1-c1ncccc1Cl` (stereo not shown) [Example 97] returned a chromatographic logP of 3.32. The pest or weed control at 20 g/ha in series [2] (in Brassica rapa) is not below 80%. The pest or weed control at 100 g/ha in series [3] (in Zea mays) and in series [4] was not below 80% each time.

On to `CNC(=O)c1cc(I)cc(C)c1NC(=O)c1cc(Cn2nnnc2C(F)(F)F)nn1-c1ncccc1Cl` [Example 172], for which the chromatographic logP in series [1] (log P) amounted to 2.86. Besides, the pest or weed control at 100 g/ha in series [2] (in Brassica rapa), in series [3] (in Zea mays) and in series [4] was not below 80% throughout.

In the case of `CNC(=O)c1cc(S(C)(=O)=O)cc(C)c1NC(=O)c1cc(Cn2nnc(C(F)(F)F)n2)nn1-c1ccccc1Cl` [Example 441], in series [1] (setting [5]), the chromatographic logP was 2.73. For the same compound, the pest or weed control at 100 g/ha in series [2] (setting [6]), in series [3] (setting [7]) and in series [4] was not below 80% throughout.

Turning to `Cc1cc(C#N)cc(C(=O)NCC2CC2)c1NC(=O)c1cc(Cn2nnnc2C(F)(F)F)nn1-c1ccccc1Cl` [Example 526], the chromatographic logP in series [1] (setting [5]) came to 3.25. In addition, the pest or weed control at 100 g/ha in series [2] (setting [6]), in series [3] (setting [7]) and in series [4] was not below 80% throughout.

Turning to `CSC[C@H](C)NC(=O)c1cc(Cl)cc(C)c1NC(=O)c1cc(Cn2nnc(C(F)(F)F)n2)nn1-c1ncccc1Cl` [Example 41], in series [1] (log P), the chromatographic logP is 3.68. Besides, the pest or weed control at 100 g/ha in series [2] (in Brassica rapa), in series [3] (in Zea mays) and in series [4] was not below 80% in each case.

On to `Cc1cc(Cl)cc(C(=O)NC(C)C)c1NC(=O)c1cc(Cn2nnnc2C(F)(F)C(F)(F)F)nn1-c1ncccc1Br` [Example 513], for which the chromatographic logP in series [1] (setting [5]) worked out at 3.54. In addition, the pest or weed control at 100 g/ha in series [2] (setting [6]), in series [3] (setting [7]) and in series [4] was not below 80% each time.

Regarding `Cc1cc(Br)cc(C(=O)NC(C)C)c1NC(=O)c1cc(Cn2nnnc2C(F)(F)F)nn1-c1ncccc1C(F)(F)F` [Example 459], the chromatographic logP in series [1] (setting [5]) was 3.29. The pest or weed control at 100 g/ha in series [2] (setting [6]), in series [3] (setting [7]) and in series [4] was not below 80% throughout.

`Cc1cc(I)cc(C(=O)NC(C)C)c1NC(=O)c1cc(Cn2nnnc2C(F)(F)F)nn1-c1ncccc1Cl` [Example 173] gave a chromatographic logP in series [1] (log P) of 3.36. In addition, the pest or weed control at 100 g/ha in series [2] (in Brassica rapa), in series [3] (in Zea mays) and in series [4] was not below 80% in each case.

The compound `Cc1cc(C#N)cc(C(=O)NC2CCC2)c1NC(=O)c1cc(Cn2nnc(C(F)F)n2)nn1-c1ncccc1Cl` [Example 270] gave a chromatographic logP in series [1] (log P) of 2.7. For the same compound, the pest or weed control at 100 g/ha in series [2] (in Brassica rapa), in series [3] (in Zea mays) and in series [4] was not below 80% each time.

With `CNC(=O)c1cc(Cl)cc(C)c1NC(=O)c1cc(C(C)n2nnnc2C(F)(F)F)nn1-c1ncccc1Cl` (stereo not shown) [Example 510], in series [1] (log P), the chromatographic logP is 2.86. The pest or weed control at 100 g/ha in series [2] (in Brassica rapa), in series [3] (in Zea mays) and in series [4] was not below 80% throughout.

Turning to `CNC(=O)c1cc(C#N)cc(C)c1NC(=O)c1cc(Cn2nnnc2C(F)(F)F)nn1-c1ncccc1Br` [Example 477], the chromatographic logP in series [1] (setting [5]) is 2.47. Also, the pest or weed control at 100 g/ha in series [2] (setting [6]), in series [3] (setting [7]) and in series [4] was not below 80% each time.

For the compound `Cc1cc(Cl)cc(C(=O)NC(C)(C)C)c1NC(=O)c1cc(Cn2nnc(C(F)(F)F)n2)nn1-c1ncccc1Cl` [Example 544], the chromatographic logP in series [1] (log P) was found to be 3.85. The pest or weed control at 100 g/ha in series [2] (in Brassica rapa), in series [3] (in Zea mays) and in series [4] was not below 80% in each case.

`Cc1cc(Br)cc(C(=O)NC(C)(C)C)c1NC(=O)c1cc(Cn2nnnc2C(F)(F)F)nn1-c1ncccc1Br` [Example 507]: in series [1] (setting [5]), the chromatographic logP was found to be 3.65. Further, the pest or weed control at 100 g/ha in series [2] (setting [6]), in series [3] (setting [7]) and in series [4] was not below 80% in each case.

In series [1] (log P), `Cc1cc(C#N)cc(C(=O)NC(C)(C)C)c1NC(=O)c1cc(Cn2nnnc2C(F)(F)F)nn1-c1ncccc1Cl` [Example 160] returned a chromatographic logP of 3.05. Besides, the pest or weed control at 100 g/ha in series [2] (in Brassica rapa), in series [3] (in Zea mays) and in series [4] was not below 80% in each case.

`COCC(C)NC(=O)c1cc(C#N)cc(C)c1NC(=O)c1cc(Cn2nnc(C(F)(F)F)n2)nn1-c1ncccc1Cl` (stereo not shown) [Example 98] registered a chromatographic logP in series [1] (log P) of 2.95. Further, the pest or weed control at 100 g/ha in series [2] (in Brassica rapa), in series [3] (in Zea mays) and in series [4] was not below 80% each time.

Consider `Cc1cc(Cl)cc(C(=O)NC(C)C)c1NC(=O)c1cc(Cn2nnc(C(F)(F)C(F)(F)F)n2)nn1-c1ncccc1Cl` [Example 129], for which the chromatographic logP in series [1] (log P) is 3.94. Further, the pest or weed control at 100 g/ha in series [2] (in Brassica rapa), in series [3] (in Zea mays) and in series [4] was not below 80% each time.

For the compound `Cc1cc(C#N)cc(C(=O)NC2CC2)c1NC(=O)c1cc(Cn2nnc(C(F)(F)F)n2)nn1-c1ncccc1Br` [Example 333], the chromatographic logP in series [1] (setting [8]) came to 2.85. For the same compound, the pest or weed control at 100 g/ha in series [2] (setting [6]), in series [3] (setting [7]) and in series [4] was not below 80% throughout.

Source of the values: patent US8324390B2, “Tetrazole-substituted anthranilamides as pesticides” (Bayer CropScience AG, priority 2008, dated 2012).
